Assay results as given in PMC11566078, “Bactericidal activities and biochemical features of 16 antimicrobial peptides against bovine-mastitis causative pathogens” (Veterinary Research, 2024).
Like-named read-outs stand apart in the source and are kept apart here. Where no end group is shown, it is not given here.

Key:
Assay type in all cases: cell-based
[1] = system: Enterococcus faecalis ATCC 29212; test: microbe, parasite or virus in culture
Experimental: (§1) The standard bacterial strains used for antimicrobial activity assays include Staphylococcus aureus ATCC (American Type Culture Collection, Manassas, VA, USA) 6538, Bacillus cereus ATCC 10876, Enterococcus faecalis ATCC 29212, Streptococcus […] 27956, Streptococcus dysgalactiae ATCC 27957, Streptococcus equi subsp. zooepidemicus ATCC 43079, Escherichia coli ATCC 25922, and Pseudomonas aeruginosa ATCC 27853. Most bacterial strains were cultured in LB medium except for E. faecalis and streptococci, which were cultivated in brain heart infusion (BHI) broth (BD Bioscience). […] Experiments were conducted in triplicate.

[2] = system: Streptococcus agalactiae ATCC 27956; test: microbe, parasite or virus in culture
Experimental: as §1

[3] = system: Streptococcus equi subsp. zooepidemicus ATCC 43079; test: microbe, parasite or virus in culture
Experimental: as §1

[4] = system: Bacillus cereus ATCC 10876; test: microbe, parasite or virus in culture
Experimental: as §1

[5] = system: Pseudomonas aeruginosa ATCC 27853; test: microbe, parasite or virus in culture
Experimental: as §1

[6] = system: Streptococcus dysgalactiae ATCC 27957; test: microbe, parasite or virus in culture
Experimental: as §1

[7] = system: Staphylococcus aureus ATCC 6538; test: microbe, parasite or virus in culture
Experimental: as §1

[8] = system: eight standard bacterial strains
Experimental: as §1

[9] = system: Escherichia coli ATCC 25922; test: microbe, parasite or virus in culture; settings: MH broth, WST colourimetric, 1.5 × 10^5 cells/well, 37 °C 6 h + 2 h reagent, A450, triplicate
Experimental: as §1

[10] = only some Gram-negative and Gram-positive strains, range stated for the group of peptides
[11] = ATCC 27956, BHI broth, WST colourimetric, 37 °C 6 h, triplicate
[12] = ATCC 43079, BHI broth, WST colourimetric, 37 °C 6 h, triplicate
[13] = ATCC 10876, MH broth, WST colourimetric, 37 °C 6 h, triplicate
[14] = ATCC 27853, CAMHB, WST colourimetric, 37 °C 6 h, triplicate
[15] = ATCC 27957, BHI broth, WST colourimetric, 37 °C 6 h, triplicate

Substance: GGLRSLGRKILRAWKKYGPIIVPIIRIG [BMAP-28]
- Minimal inhibitory concentration, Enterococcus faecalis ([1]; ATCC 29212, 6 h): 15 (4.8) μg/mL
- Minimal inhibitory concentration, Streptococcus agalactiae ([2]; ATCC 27956, 6 h): > 40 (12.6) μg/mL
- Minimal inhibitory concentration, Streptococcus equi subsp. zooepidemicus ([3]; ATCC 43079, 6 h): > 40 (12.6) μg/mL
- Minimal inhibitory concentration, Bacillus cereus ([4]; ATCC 10876, 6 h): 7 (2.2) μg/mL
- Minimal inhibitory concentration, Pseudomonas aeruginosa ([5]; ATCC 27853, 6 h): 9 (2.9) μg/mL
- Minimal inhibitory concentration, Streptococcus dysgalactiae ([6]; ATCC 27957, 6 h): > 40 (12.6) μg/mL
- Minimal inhibitory concentration, Staphylococcus aureus ([7]; ATCC 6538, 6 h): 5 (1.6) μg/mL
- MICs, range over the strains against which active [8, 10]: 0.7 to 18.8 µM

Substance: GRFRRLRKKTRKRLKKIGKVLKWIPPIVGSIPLGCG [PMAP-36]
- Minimal inhibitory concentration, Enterococcus faecalis ([1]; ATCC 29212, 6 h): > 40 (9.6) μg/mL
- Minimal inhibitory concentration, Streptococcus agalactiae ([2]; ATCC 27956, 6 h): > 40 (9.6) μg/mL
- Minimal inhibitory concentration, Streptococcus equi subsp. zooepidemicus ([3]; ATCC 43079, 6 h): > 40 (9.6) μg/mL
- Minimal inhibitory concentration, Bacillus cereus ([4]; ATCC 10876, 6 h): 28 (6.7) μg/mL
- Minimal inhibitory concentration, Pseudomonas aeruginosa ([5]; ATCC 27853, 6 h): 8 (1.9) μg/mL
- Minimal inhibitory concentration, Streptococcus dysgalactiae ([6]; ATCC 27957, 6 h): > 40 (9.6) μg/mL
- Minimal inhibitory concentration, Staphylococcus aureus ([7]; ATCC 6538, 6 h): 9 (2.2) μg/mL

Substance: ILGRLRDLLRRGGRKIGQGLERIGQRIQGFFSNREPMEES [HA-CATH]
- Minimal inhibitory concentration, Enterococcus faecalis ([1]; ATCC 29212, 6 h): > 40 (8.6) μg/mL
- Minimal inhibitory concentration, Streptococcus agalactiae ([2]; ATCC 27956, 6 h): > 40 (8.6) μg/mL
- Minimal inhibitory concentration, Streptococcus equi subsp. zooepidemicus ([3]; ATCC 43079, 6 h): > 40 (8.6) μg/mL
- Minimal inhibitory concentration, Bacillus cereus ([4]; ATCC 10876, 6 h): 25 (5.4) μg/mL
- Minimal inhibitory concentration, Pseudomonas aeruginosa ([5]; ATCC 27853, 6 h): > 40 (8.6) μg/mL
- Minimal inhibitory concentration, Streptococcus dysgalactiae ([6]; ATCC 27957, 6 h): > 40 (8.6) μg/mL
- Minimal inhibitory concentration, Staphylococcus aureus ([7]; ATCC 6538, 6 h): 26 (5.6) μg/mL
- MICs, range over the strains against which active [8, 10]: 0.7 to 18.8 µM

Substance: KRRGSVTTRYQFLMIHLLRPKKLFA [EA-CATH1]
- Minimal inhibitory concentration, Enterococcus faecalis ([1]; ATCC 29212, 6 h): 30 (9.8) μg/mL
- Minimal inhibitory concentration, Streptococcus agalactiae ([2]; ATCC 27956, 6 h): > 40 (13.1) μg/mL
- Minimal inhibitory concentration, Streptococcus equi subsp. zooepidemicus ([3]; ATCC 43079, 6 h): > 40 (13.1) μg/mL
- Minimal inhibitory concentration, Bacillus cereus ([4]; ATCC 10876, 6 h): > 40 (13.1) μg/mL
- Minimal inhibitory concentration, Pseudomonas aeruginosa ([5]; ATCC 27853, 6 h): 19 (6.1) μg/mL
- Minimal inhibitory concentration, Streptococcus dysgalactiae ([6]; ATCC 27957, 6 h): > 40 (13.1) μg/mL
- Minimal inhibitory concentration, Staphylococcus aureus ([7]; ATCC 6538, 6 h): 41 (13.4) μg/mL
- MICs, range over the strains against which active [8, 10]: 0.7 to 18.8 µM

Substance: MRGGRLCYCRRRFCVCVGR (disulfide (positions not given here)) [PG-1, pig cathelicidin produced recombinantly with a GFP-scaffold system, CNBr cleaved, disulfide bonds installed]
- Minimal inhibitory concentration, Escherichia coli [9]: 23 (10.0) μg/mL
- Minimal inhibitory concentration, Enterococcus faecalis ([1]; ATCC 29212, BHI broth, WST colourimetric, 37 °C 6 h, triplicate): > 40 (17.5) μg/mL
- Minimal inhibitory concentration, Streptococcus agalactiae [2, 11]: > 40 (17.5) μg/mL
- Minimal inhibitory concentration, Streptococcus equi subsp. zooepidemicus [3, 12]: > 40 (17.5) μg/mL
- Minimal inhibitory concentration, Bacillus cereus [4, 13]: > 40 (17.5) μg/mL
- Minimal inhibitory concentration, Pseudomonas aeruginosa [5, 14]: 20 (8.7) μg/mL
- Minimal inhibitory concentration, Streptococcus dysgalactiae [6, 15]: 32 (14.0) μg/mL
- MICs, range over the strains against which active [8, 10]: 0.7 to 18.8 µM

Substance: Nisin
- Minimal inhibitory concentration, Escherichia coli [9]: > 64 (19.2) μg/mL
- Minimal inhibitory concentration, Streptococcus agalactiae [2, 11]: 2 (0.60) μg/mL
- Minimal inhibitory concentration, Streptococcus equi subsp. zooepidemicus [3, 12]: 4 (1.2) μg/mL
- Minimal inhibitory concentration, Bacillus cereus [4, 13]: 4 (1.2) μg/mL
- Minimal inhibitory concentration, Pseudomonas aeruginosa [5, 14]: > 64 (19.2) μg/mL
- Minimal inhibitory concentration, Streptococcus dysgalactiae [6, 15]: 4 (1.2) μg/mL
- Minimal inhibitory concentration, Staphylococcus aureus ([7]; ATCC 6538, MH broth, WST colourimetric, 37 °C 6 h, triplicate): 2 (0.60) μg/mL
- MICs, range over all Gram-positive strains in the panel ([8]; all Gram-positive strains of the standard panel): 2 to 16 µg/mL

Substance: RRRPRPPYLPRPRPPPFFPPRLPPRIPPGFPPRFP [PR-35]
- Minimal inhibitory concentration, Enterococcus faecalis ([1]; ATCC 29212, 6 h): > 40 (9.5) μg/mL
- Minimal inhibitory concentration, Streptococcus agalactiae ([2]; ATCC 27956, 6 h): > 40 (9.5) μg/mL
- Minimal inhibitory concentration, Streptococcus equi subsp. zooepidemicus ([3]; ATCC 43079, 6 h): > 40 (9.5) μg/mL
- Minimal inhibitory concentration, Bacillus cereus ([4]; ATCC 10876, 6 h): > 40 (9.5) μg/mL
- Minimal inhibitory concentration, Pseudomonas aeruginosa ([5]; ATCC 27853, 6 h): > 40 (9.5) μg/mL
- Minimal inhibitory concentration, Streptococcus dysgalactiae ([6]; ATCC 27957, 6 h): > 40 (9.5) μg/mL
- Minimal inhibitory concentration, Staphylococcus aureus ([7]; ATCC 6538, 6 h): > 40 (9.5) μg/mL

Substance: SKFFRKARKKLGKGLQKIKNVLRKY [ΔHg-CATH]
- Minimal inhibitory concentration, Enterococcus faecalis ([1]; ATCC 29212, 6 h): > 40 (13.2) μg/mL
- Minimal inhibitory concentration, Streptococcus agalactiae ([2]; ATCC 27956, 6 h): > 40 (13.2) μg/mL
- Minimal inhibitory concentration, Streptococcus equi subsp. zooepidemicus ([3]; ATCC 43079, 6 h): 15 (4.9) μg/mL
- Minimal inhibitory concentration, Bacillus cereus ([4]; ATCC 10876, 6 h): > 40 (13.2) μg/mL
- Minimal inhibitory concentration, Pseudomonas aeruginosa ([5]; ATCC 27853, 6 h): 5 (1.7) μg/mL
- Minimal inhibitory concentration, Streptococcus dysgalactiae ([6]; ATCC 27957, 6 h): 15 (4.9) μg/mL
- Minimal inhibitory concentration, Staphylococcus aureus ([7]; ATCC 6538, 6 h): > 40 (13.2) μg/mL
- MICs, range over the strains against which active [8]: 0.7 to 18.8 µM

Substance: TRSRWRRFIRGAGRFARRYGWRIA [ΔPb-CATH4]
- Minimal inhibitory concentration, Enterococcus faecalis ([1]; ATCC 29212, 6 h): > 40 (13.1) μg/mL
- Minimal inhibitory concentration, Streptococcus agalactiae ([2]; ATCC 27956, 6 h): > 40 (13.1) μg/mL
- Minimal inhibitory concentration, Streptococcus equi subsp. zooepidemicus ([3]; ATCC 43079, 6 h): 20 (6.6) μg/mL
- Minimal inhibitory concentration, Bacillus cereus ([4]; ATCC 10876, 6 h): > 40 (13.1) μg/mL
- Minimal inhibitory concentration, Pseudomonas aeruginosa ([5]; ATCC 27853, 6 h): 11 (3.5) μg/mL
- Minimal inhibitory concentration, Streptococcus dysgalactiae ([6]; ATCC 27957, 6 h): > 40 (13.1) μg/mL
- Minimal inhibitory concentration, Staphylococcus aureus ([7]; ATCC 6538, 6 h): 4 (1.3) μg/mL
- MICs, range over the strains against which active [8]: 0.7 to 18.8 µM

Substance: VKRTKRGARRGLTKVLKKIFGSIVKKAVSKGV [ΔModoCath1]
- Minimal inhibitory concentration, Enterococcus faecalis ([1]; ATCC 29212, 6 h): 2.9 µM
- Minimal inhibitory concentration, Pseudomonas aeruginosa ([5]; ATCC 27853, 6 h): 2.9 µM
- Minimal inhibitory concentration, Staphylococcus aureus ([7]; ATCC 6538, 6 h): 11 (3.2) μg/mL
- MICs, range over the strains against which active [8, 10]: 0.7 to 18.8 µM

Substance: VRRSKRGIKVPSFVKKVLKDVVSESIS [ΔModoCath6]
- Minimal inhibitory concentration, Enterococcus faecalis ([1]; ATCC 29212, 6 h): > 40 (13.2) μg/mL
- Minimal inhibitory concentration, Streptococcus agalactiae ([2]; ATCC 27956, 6 h): > 40 (13.2) μg/mL
- Minimal inhibitory concentration, Streptococcus equi subsp. zooepidemicus ([3]; ATCC 43079, 6 h): > 40 (13.2) μg/mL
- Minimal inhibitory concentration, Bacillus cereus ([4]; ATCC 10876, 6 h): > 40 (13.2) μg/mL
- Minimal inhibitory concentration, Pseudomonas aeruginosa ([5]; ATCC 27853, 6 h): > 40 (13.2) μg/mL
- Minimal inhibitory concentration, Streptococcus dysgalactiae ([6]; ATCC 27957, 6 h): > 40 (13.2) μg/mL
- Minimal inhibitory concentration, Staphylococcus aureus ([7]; ATCC 6538, 6 h): > 40 (13.2) μg/mL

Substance: WYQLIRTFGNLIHQKYRKLLEAYRKLRD [ΔModoCath5]
- Minimal inhibitory concentration, Enterococcus faecalis ([1]; ATCC 29212, 6 h): 10 (2.8) μg/mL
- Minimal inhibitory concentration, Streptococcus agalactiae ([2]; ATCC 27956, 6 h): > 40 (11.0) μg/mL
- Minimal inhibitory concentration, Streptococcus equi subsp. zooepidemicus ([3]; ATCC 43079, 6 h): > 40 (11.0) μg/mL
- Minimal inhibitory concentration, Bacillus cereus ([4]; ATCC 10876, 6 h): 26 (7.3) μg/mL
- Minimal inhibitory concentration, Pseudomonas aeruginosa ([5]; ATCC 27853, 6 h): > 40 (11.0) μg/mL
- Minimal inhibitory concentration, Streptococcus dysgalactiae ([6]; ATCC 27957, 6 h): > 40 (11.0) μg/mL
- Minimal inhibitory concentration, Staphylococcus aureus ([7]; ATCC 6538, 6 h): 6 (1.7) μg/mL
